Key:
CYP3A4 = CYP3A4 (Homo sapiens, UniProt P08684); assay: Cytochrome P450 (CYP450) Inhibition Assay, CYP3A4 (Vivid fluorescence, BOMCC substrate); details: human, P450 Baculosomes (recombinant CYP3A4), probe BOMCC (Vivid substrate)
sodium channel = assay: Guanidine influx assay (14C-guanidine radiotracer flux, in vitro); type: cell-based, human or rat; details: guanidine influx assay using a known cell line that expresses a sodium channel
Method in brief: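 Sodium channel block is measured as reduced 14C-guanidine uptake in cells stably expressing human or rat channels, stimulated with aconitine. Potency is given as IC50 from a four-parameter curve.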

CYP3A4, sequence (P08684 whole entry): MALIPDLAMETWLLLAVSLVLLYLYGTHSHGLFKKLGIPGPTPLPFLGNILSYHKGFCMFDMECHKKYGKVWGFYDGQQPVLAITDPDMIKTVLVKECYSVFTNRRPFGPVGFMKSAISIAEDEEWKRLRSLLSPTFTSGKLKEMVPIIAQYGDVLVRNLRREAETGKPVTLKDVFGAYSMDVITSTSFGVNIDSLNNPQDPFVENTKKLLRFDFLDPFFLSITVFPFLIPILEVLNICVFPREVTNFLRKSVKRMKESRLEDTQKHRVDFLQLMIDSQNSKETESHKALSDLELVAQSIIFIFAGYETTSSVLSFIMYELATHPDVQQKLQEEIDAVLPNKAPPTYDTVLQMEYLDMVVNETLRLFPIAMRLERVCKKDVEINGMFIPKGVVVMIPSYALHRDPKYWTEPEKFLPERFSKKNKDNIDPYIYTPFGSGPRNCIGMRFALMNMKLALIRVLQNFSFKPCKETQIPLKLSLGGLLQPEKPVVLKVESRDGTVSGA

Row | melting point [°C] | inhibition at 10 µM (CYP3A4) [%] | IC50 (sodium channel) [nM] | Compound
1 | 112 to 118 | < 50 | 1000 to 10000 | CC1(C)O[C@H]2[C@@H](O1)[C@@H](CN1C(=O)C3(COc4cc5c(cc43)OCCO5)c3ccccc31)O[C@@H]1OC(C)(C)O[C@@H]12 (stereo partly drawn) [Example 19, 1′-{[(3aR,5R,5aS,8aS,8bR)-2,2,7,7-tetramethyltetrahydro-3aH-bis[1,3]dioxolo[4,5-b:4′,5′-d]pyran-5-yl]methyl}-2,3-dihydrospiro[furo[2,3-g][1,4]benzodioxine-8,3′-indol]-2′(1′H)-one]
2 | 122 to 126 | < 50 | 1000 to 10000 | O=C1N(C[C@H]2OC(O)[C@H](O)[C@@H](O)[C@H]2O)c2ccccc2C12COc1cc3c(cc12)OCCO3 (stereo partly drawn) [Example 20, 6-deoxy-6-(2′-oxo-2,3-dihydrospiro[furo[2,3-g][1,4]benzodioxine-8,3′-indol]-1′(2′H)-yl)-D-galactopyranose]
3 | 227 to 228 | < 50 | 1 to 100 | O=C1N(C2CC2)c2ccccc2C12COc1cc3c(cc12)OCCO3 (stereo not drawn) [Example 21, 1′-cyclopropyl-2,3-dihydrospiro[furo[2,3-g][1,4]benzodioxine-8,3′-indol]-2′(1′H)-one]
4 | 236 to 238 | < 50 | 1 to 100 | CC(=O)N1C(=O)C2(COc3cc4c(cc32)OCCO4)c2ccccc21 (stereo not drawn) [Example 22, 1′-acetyl-2,3-dihydrospiro[furo[2,3-g][1,4]benzodioxine-8,3′-indol]-2′(1′H)-one]
5 | 154 to 155 | < 50 | 1 to 100 | O=C1N(Cc2cc(C(F)(F)F)ccn2)c2ccccc2C12COc1cc3c(cc12)OCCO3 (stereo not drawn) [Example 23, 1′-{[4-(trifluoromethyl)pyridin-2-yl]methyl}-2,3-dihydrospiro[furo[2,3-g][1,4]benzodioxine-8,3′-indol]-2′(1′H)-one]
6 | 80 to 89 | < 50 | 1 to 100 | Cc1noc(-c2cccc(CN3C(=O)C4(COc5cc6c(cc54)OCCO6)c4ccccc43)c2)n1 (stereo not drawn) [Example 28, 1′-[3-(3-methyl-1,2,4-oxadiazol-5-yl)benzyl]-2,3-dihydrospiro[furo[2,3-g][1,4]benzodioxine-8,3′-indol]-2′(1′H)-one]
7 | 177 to 178 | < 50 | 1 to 100 | Cc1noc(-c2ccc(CN3C(=O)C4(COc5cc6c(cc54)OCCO6)c4ccccc43)cc2)n1 (stereo not drawn) [Example 30, 1′-[4(3-methyl-1,2,4-oxadiazol-5-yl)benzyl]-2,3-dihydrospiro[furo[2,3-g][1,4]benzodioxine-8,3′-indol]-2′(1′H)-one]
8 | 220 to 222 | < 50 | 100 to 1000 | NC(=O)c1ccc2c(c1)C1(COc3cc4c(cc31)OCCO4)C(=O)N2Cc1ccccn1 (stereo not drawn) [Example 31, 2′-oxo-1′-(pyridin-2-ylmethyl)-1′,2,2′,3-tetrahydrospiro[furo[2,3-g][1,4]benzodioxine-8,3′-indole]-5′-carboxamide]
9 | 117 to 119 | > 50 | 1 to 100 | O=C1N(Cc2ccc(N3CCOCC3)nc2)c2ccccc2C12COc1cc3c(cc12)OCCO3 (stereo not drawn) [Example 32, 1′-[(6-morpholin-4-ylpyridin-3-yl)methyl]-2,3-dihydrospiro[furo[2,3-g][1,4]benzodioxine-8,3′-indol]-2′(1′H)-one]
10 | 93 to 95 | < 50 | 1 to 100 | CN(C)c1ccc(CN2C(=O)C3(COc4cc5c(cc43)OCCO5)c3ccccc32)cn1 (stereo not drawn) [Example 32.1, 1′-{[6-(dimethylamino)pyridin-3-yl]methyl}-2,3-dihydrospiro[furo[2,3-g][1,4]benzodioxine-8,3′-indol]-2′(1′H)-one]
11 | 196 to 197 | > 50 | 1 to 100 | CN(C)c1cccc(CN2C(=O)C3(COc4cc5c(cc43)OCCO5)c3ccccc32)n1 (stereo not drawn) [Example 32.2, 1-{[6-(dimethylamino)pyridin-2-yl]methyl}-2,3-dihydrospiro[furo[2,3-g][1,4]benzodioxine-8,3′-indol]-2′(1′H)-one]
12 | 204 to 206 | < 50 | 100 to 1000 | O=C1N(Cc2ccc(N3CCOCC3)cn2)c2ccccc2C12COc1cc3c(cc12)OCCO3 (stereo not drawn) [Example 33.3, 1′-[(5-morpholin-4-ylpyridin-2-yl)methyl]-2,3-dihydrospiro[furo[2,3-g][1,4]benzodioxine-8,3′-indol]-2′(1′H)-one]
13 | 229 to 236 | > 50 | 1 to 100 | CN(C)c1ccc(CN2C(=O)C3(COc4cc5c(cc43)OCCO5)c3ccccc32)nc1 (stereo not drawn) [Example 33.4, 1′-{[5-(dimethylamino)pyridin-2-yl]methyl}-2,3-dihydrospiro[furo[2,3-g][1,4]benzodioxine-8,3′-indol]-2′(1′H)-one]
14 | 249 to 250 | < 50 | 100 to 1000 | O=C1N(Cc2ccc(=O)[nH]c2)c2ccccc2C12COc1cc3c(cc12)OCCO3 (stereo not drawn) [Example 35, 1′-[(6-oxo-1,6-dihydropyridin-3-yl)methyl]-2,3-dihydrospiro[furo[2,3-g][1,4]benzodioxine-8,3′-indol]-2′(1′H)-one]
15 | > 250 | < 50 | 1000 to 10000 | O=C1N(Cc2cnc(O)nc2)c2ccccc2C12COc1cc3c(cc12)OCCO3 (stereo not drawn) [Example 35.1, 1′-[(2-hydroxypyrimidin-5-yl)methyl]-2,3-dihydrospiro[furo[2,3-g][1,4]benzodioxine-8,3′-indol]-2′(1′H)-one]
16 | 205 to 207 | < 50 | 100 to 1000 | Cn1cc(CN2C(=O)C3(COc4cc5c(cc43)OCCO5)c3ccccc32)ccc1=O (stereo not drawn) [Example 36, 1′-[(1-methyl-6-oxo-1,6-dihydropyridin-3-yl)methyl]-2,3-dihydrospiro[furo[2,3-g][1,4]benzodioxine-8,3′-indol]-2′(1′H)-one]
17 | 117 to 119 | < 50 | 1 to 100 | Nc1ccc(CN2C(=O)C3(COc4cc5c(cc43)OCCO5)c3ccccc32)cn1 (stereo not drawn) [Example 37, 1′-[(6-aminopyridin-3-yl)methyl]-2,3-dihydrospiro[furo[2,3-g][1,4]benzodioxine-8,3′-indol]-2′(1′H)-one]
18 | 231 to 232 | < 50 | 1 to 100 | O=C1N(Cc2ccc(N/C=N\O)nc2)c2ccccc2C12COc1cc3c(cc12)OCCO3 (stereo not drawn) [Example 38, N′-hydroxy-N-{5-[(2′-oxo-2,3-dihydrospiro[furo[2,3-g][1,4]benzodioxine-8,3′-indol]-1′(2′H)-yl)methyl]pyridin-2-yl}imidoformamide]
19 | 207 to 209 | > 50 | 1 to 100 | O=C1N(Cc2ccc3ncnn3c2)c2ccccc2C12COc1cc3c(cc12)OCCO3 (stereo not drawn) [Example 39, 1′-([1,2,4]triazolo[1,5-a]pyridin-6-ylmethyl)-2,3-dihydrospiro[furo[2,3-g][1,4]benzodioxine-8,3′-indol]-2′(1′H)-one]
20 | 213 to 215 | < 50 | 1 to 100 | N#Cc1cccc(CN2C(=O)C3(COc4cc5c(cc43)OCCO5)c3ccccc32)n1 (stereo not drawn) [Example 41, 6-[(2′-oxo-2,3-dihydrospiro[furo[2,3-g][1,4]benzodioxine-8,3′-indol]-1′(2′H)-yl)methyl]pyridine-2-carbonitrile]
21 | 214 to 216 | > 50 | 100 to 1000 | COc1ccc(CN2C(=O)C3(COc4cc5onc(N)c5cc43)c3ccccc32)cc1 (stereo not drawn) [Example 44, 3-amino-1′-(4-methoxybenzyl)spiro[furo[3,2-f][1,2]benzisoxazole-5,3′-indol]-2′(1′H)-one]
22 | 190 to 192 | < 50 | 100 to 1000 | Nc1noc2cc3c(cc12)C1(CO3)C(=O)N(Cc2ccccn2)c2ccccc21 (stereo not drawn) [Example 44.1, 3-amino-1′-(pyridin-2-ylmethyl)spiro[furo[3,2-f][1,2]benzisoxazole-5,3′-indol]-2′(1′H)-one]
23 | 116 to 119 | < 50 | 1000 to 10000 | Nc1noc2cc3c(cc12)C1(CO3)C(=O)N(C[C@H]2CCCO2)c2ccccc21 (stereo partly drawn) [Example 44.2, 3-amino-1′-[(2R)-tetrahydrofuran-2-ylmethyl]spiro[furo[3,2-f][1,2]benzisoxazole-5,3′-indol]-2′(1′H)-one]
24 | 262 to 264 | > 50 | 1000 to 10000 | Nc1noc2cc3c(cc12)C1(CO3)C(=O)N(Cc2ccccc2C(F)(F)F)c2ccccc21 (stereo not drawn) [Example 44.3, 3-amino-1′-[2-(trifluoromethyl)benzyl]spiro[furo[3,2-f][1,2]benzisoxazole-5,3′-indol]-2′(1′H)-one]
25 | 218 to 221 | < 50 | 1000 to 10000 | N#Cc1cc2c(cc1O)OCC21C(=O)N(C[C@H]2CCCO2)c2ccccc21 (stereo partly drawn) [Example 45, 6-hydroxy-2′-oxo-1′-[(2R)-tetrahydrofuran-2-ylmethyl]-1′,2′-dihydrospiro[1-benzofuran-3,3′-indole]-5-carbonitrile]
26 | 122 to 124 | < 50 | 1000 to 10000 | N#Cc1cc2c(cc1O)OCC21C(=O)N(Cc2ccccc2C(F)(F)F)c2ccccc21 (stereo not drawn) [Example 45.1, 6-hydroxy-2′-oxo-1′-[2-(trifluoromethyl)benzyl]-1′,2′-dihydrospiro[1-benzofuran-3,3′-indole]-5-carbonitrile]

Source: patent US8263606B2 (Xenon Pharmaceuticals Inc., priority 2008, dated 2012)
